# Experimental data as given in ChEMBL document CHEMBL5042500 (J Med Chem, 2022).
# pIC50: −log10 of the molar value.
# How the values were obtained:
# [1] = Photostability of compound; format: physicochemical
# [2] = target: T1, Serine/threonine-protein kinase Sgk1 (Homo sapiens, UniProt O00141); experiment: Inhibition of recombinant human SGK1 expressed in baculovirus expression system using 5-carboxyfluorescein -RPRAATF-NH2 as substrate preincubated for 30 mins followed by substrate addition in presence of 500 uM ATP and measured after 60 mins by microfluidics assay
# T1 sequence (O00141 whole entry): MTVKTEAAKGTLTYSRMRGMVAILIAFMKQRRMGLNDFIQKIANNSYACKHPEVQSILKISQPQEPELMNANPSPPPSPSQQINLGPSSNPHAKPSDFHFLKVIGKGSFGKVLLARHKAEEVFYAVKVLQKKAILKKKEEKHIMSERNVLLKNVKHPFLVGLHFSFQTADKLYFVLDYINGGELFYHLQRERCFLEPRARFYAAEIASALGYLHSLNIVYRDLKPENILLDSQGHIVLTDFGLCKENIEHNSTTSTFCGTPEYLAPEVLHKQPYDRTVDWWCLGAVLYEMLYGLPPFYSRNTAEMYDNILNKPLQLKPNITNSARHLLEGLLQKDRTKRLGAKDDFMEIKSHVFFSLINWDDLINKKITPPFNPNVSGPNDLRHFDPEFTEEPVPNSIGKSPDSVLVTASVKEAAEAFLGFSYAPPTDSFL
# [3] = target: T1, Serine/threonine-protein kinase Sgk1; experiment: Inhibition of recombinant human SGK1 expressed in baculovirus expression system using 5-carboxyfluorescein -RPRAATF-NH2 as substrate preincubated for 30 mins followed by substrate addition in presence of 10 uM ATP and measured after 60 mins by microfluidics assay
SMILES,Stability [1] [%],pIC50 [2],pIC50 [3]
Nc1n[nH]c2nc(-c3ccc(NS(=O)(=O)c4cc(Cl)c(F)cc4F)cc3)ncc12,98.6,–,–
Cc1n[nH]c2nc(-c3ccc(NS(=O)(=O)c4cc(Cl)ccc4F)cc3)nc(OC3CCNCC3F)c12 (centres undefined),–,9.00,9.00
Nc1n[nH]c2nc(-c3ccc(NS(=O)(=O)c4cccc(Cl)c4Cl)cc3)ccc12,10.1,–,–
Cc1n[nH]c2nc(-c3ccc(NS(=O)(=O)c4cc(Cl)ccc4F)cc3)nc(OC3CCNCC3(F)F)c12 (centres undefined),–,9.00,9.00
CCNC(=O)c1cc(-c2ccc(NS(=O)(=O)c3cccc(Cl)c3Cl)cc2)nc2[nH]ncc12,–,> 5.72,8.22
Cc1n[nH]c2nc(-c3ccc(NS(=O)(=O)c4cc(Cl)ccc4F)cc3)nc(OCC(F)(F)CN)c12,–,8.30,8.52
Cc1n[nH]c2nc(-c3ccc(NS(=O)(=O)c4cc(Cl)ccc4F)cc3)nc(OCCCN)c12,–,> 8.70,> 8.70
O=C(N[C@@H]1CCNC1)c1cc(-c2ccc(NS(=O)(=O)c3cccc(Cl)c3Cl)cc2)nc2[nH]ncc12,–,> 9.00,> 9.00
Cc1n[nH]c2nc(-c3ccc(NS(=O)(=O)c4cc(Cl)ccc4F)cc3)nc(OCC3(CN)COC3)c12,–,9.00,9.00
Cc1n[nH]c2nc(-c3ccc(NS(=O)(=O)c4cc(Cl)ccc4F)cc3)nc(OC3CCOCC3)c12,–,7.85,8.30
COCCN1CCC(Oc2nc(-c3ccc(NS(=O)(=O)c4cc(Cl)ccc4F)cc3)nc3[nH]nc(C)c23)CC1,–,8.30,8.52
Cc1n[nH]c2nc(-c3ccc(NS(=O)(=O)c4cc(Cl)ccc4F)cc3)nc(OC3CCCNC3)c12 (centres undefined),–,9.00,9.00
CCOc1nc(-c2ccc(NS(=O)(=O)c3cc(Cl)ccc3F)cc2)nc2[nH]nc(C)c12,–,6.74,7.64
O=C(c1cc(-c2ccc(NS(=O)(=O)c3cccc(Cl)c3Cl)cc2)nc2[nH]ncc12)N1CCNCC1,–,5.89,8.70
Cc1n[nH]c2nc(-c3ccc(NS(=O)(=O)c4cc(Cl)ccc4F)cc3)nc(OC3CCC(O)CC3)c12 (centres undefined),–,> 8.70,> 8.70
NCCNC(=O)c1cc(-c2ccc(NS(=O)(=O)c3cccc(Cl)c3Cl)cc2)nc2[nH]ncc12,–,> 9.00,> 9.00
Cc1n[nH]c2nc(-c3ccc(NS(=O)(=O)c4cc(Cl)ccc4F)cc3)nc(OCC3CN(C(C)C)C3)c12,–,9.00,9.00
Cc1n[nH]c2nc(-c3ccc(NS(=O)(=O)c4cc(Cl)ccc4F)cc3)nc(OCC3CNCCO3)c12 (centres undefined),–,8.70,8.70
CN1CC(NC(=O)c2cc(-c3ccc(NS(=O)(=O)c4cccc(Cl)c4Cl)cc3)nc3[nH]ncc23)C1,–,> 9.00,> 9.00

SMILES,Stability [1] [%],pIC50 [2],pIC50 [3]
CCN1CCC(Oc2nc(-c3ccc(NS(=O)(=O)c4cc(Cl)ccc4F)cc3)nc3[nH]nc(C)c23)CC1,–,8.40,8.70
O=C(NCc1cc[nH]n1)c1cc(-c2ccc(NS(=O)(=O)c3cccc(Cl)c3Cl)cc2)nc2[nH]ncc12,–,6.02,–
Cc1n[nH]c2nc(-c3ccc(NS(=O)(=O)c4cc(Cl)ccc4F)cc3)nc(OC3CC(C)(C)N(C)C(C)(C)C3)c12,–,8.52,8.70
O=C(NCc1nncs1)c1cc(-c2ccc(NS(=O)(=O)c3cccc(Cl)c3Cl)cc2)nc2[nH]ncc12,–,5.90,6.96
Cc1n[nH]c2nc(-c3ccc(NS(=O)(=O)c4cc(Cl)ccc4F)cc3)nc(OCCCO)c12,–,8.00,8.70
Nc1n[nH]c2nc(-c3ccc(NS(=O)(=O)c4ccccc4Cl)cc3)ccc12,46.1,–,–
Cc1n[nH]c2nc(-c3ccc(NS(=O)(=O)c4cc(Cl)ccc4F)cc3)nc(OC3CCN(CC(F)(F)F)CC3)c12,–,6.58,7.26
Cc1n[nH]c2nc(-c3ccc(NS(=O)(=O)c4cc(Cl)ccc4F)cc3)nc(Oc3ccc(N)nc3)c12,–,7.96,8.40
CC(C)NC(=O)c1cc(-c2ccc(NS(=O)(=O)c3cccc(Cl)c3Cl)cc2)nc2[nH]ncc12,–,4.75,7.17
CN(CCO)C(=O)c1cc(-c2ccc(NS(=O)(=O)c3cccc(Cl)c3Cl)cc2)nc2[nH]ncc12,–,7.62,> 9.00
Cc1n[nH]c2nc(-c3ccc(NS(=O)(=O)c4cc(Cl)ccc4F)cc3)nc(OC3CC(C)(C)NC(C)(C)C3)c12,–,8.40,8.52
NC(=O)c1cc(-c2ccc(NS(=O)(=O)c3cccc(Cl)c3Cl)cc2)nc2[nH]ncc12,–,6.63,9.00
O=C(NCc1ncc[nH]1)c1cc(-c2ccc(NS(=O)(=O)c3cccc(Cl)c3Cl)cc2)nc2[nH]ncc12,–,6.89,> 9.00
Nc1nc(CNC(=O)c2cc(-c3ccc(NS(=O)(=O)c4cccc(Cl)c4Cl)cc3)nc3[nH]ncc23)cs1,–,5.61,7.72
Cc1n[nH]c2nc(-c3ccc(NS(=O)(=O)c4cc(Cl)ccc4F)cc3)nc(Oc3ccc(O)nc3)c12,–,8.40,8.70
Nc1n[nH]c2nc(-c3ccc(NS(=O)(=O)c4cc(Cl)ccc4F)cc3)ncc12,99.3,–,–
CN(C)CCCNC(=O)c1cc(-c2ccc(NS(=O)(=O)c3cccc(Cl)c3Cl)cc2)nc2[nH]ncc12,–,6.20,–
CN1CCC(CNC(=O)c2cc(-c3ccc(NS(=O)(=O)c4cccc(Cl)c4Cl)cc3)nc3[nH]ncc23)C1 (racemic),–,7.35,7.85
CN1CCC(NC(=O)c2cc(-c3ccc(NS(=O)(=O)c4cccc(Cl)c4Cl)cc3)nc3[nH]ncc23)C1 (racemic),–,7.68,> 9.00

SMILES,Stability [1] [%],pIC50 [2],pIC50 [3]
Cc1n[nH]c2nc(-c3ccc(NS(=O)(=O)c4cc(Cl)ccc4F)cc3)nc(OCC(CO)CO)c12,–,8.70,9.00
Cc1n[nH]c2nc(-c3ccc(NS(=O)(=O)c4cc(Cl)ccc4F)cc3)nc(OC3CCC(=O)CC3)c12,–,7.74,8.30
CNC(=O)c1cc(-c2ccc(NS(=O)(=O)c3cccc(Cl)c3Cl)cc2)nc2[nH]ncc12,–,6.03,8.40
O=C(NC1CCN(CCO)C1)c1cc(-c2ccc(NS(=O)(=O)c3cccc(Cl)c3Cl)cc2)nc2[nH]ncc12 (racemic),–,7.92,9.00
CCN1CCCC(Oc2nc(-c3ccc(NS(=O)(=O)c4cc(Cl)ccc4F)cc3)nc3[nH]nc(C)c23)C1 (centres undefined),–,–,8.22
O=C(NCc1nn[nH]n1)c1cc(-c2ccc(NS(=O)(=O)c3cccc(Cl)c3Cl)cc2)nc2[nH]ncc12,–,6.09,8.40
Nc1n[nH]c2nc(-c3ccc(NS(=O)(=O)c4cccc(Cl)c4F)cc3)ccc12,87.2,–,–
O=C(NCCn1cnnc1)c1cc(-c2ccc(NS(=O)(=O)c3cccc(Cl)c3Cl)cc2)nc2[nH]ncc12,–,6.22,8.52
Cc1n[nH]c2nc(-c3ccc(NS(=O)(=O)c4cc(Cl)ccc4F)cc3)nc(OCCC(=O)N(C)C)c12,–,6.36,7.82
CCN1CCC(CNC(=O)c2cc(-c3ccc(NS(=O)(=O)c4cccc(Cl)c4Cl)cc3)nc3[nH]ncc23)C1 (racemic),–,6.96,> 9.00
O=C(NC1CCN(C2CC2)C1)c1cc(-c2ccc(NS(=O)(=O)c3cccc(Cl)c3Cl)cc2)nc2[nH]ncc12 (racemic),–,6.21,8.22
O=C(NCCc1cc[nH]n1)c1cc(-c2ccc(NS(=O)(=O)c3cccc(Cl)c3Cl)cc2)nc2[nH]ncc12,–,6.61,8.00
Nc1n[nH]c2nc(-c3ccc(NS(=O)(=O)c4c(F)cc(F)cc4F)cc3)ccc12,97.4,–,–
O=C(NC1CCN(CC2CC2)C1)c1cc(-c2ccc(NS(=O)(=O)c3cccc(Cl)c3Cl)cc2)nc2[nH]ncc12 (racemic),–,7.46,9.00
Cc1n[nH]c2nc(-c3ccc(NS(=O)(=O)c4cc(Cl)ccc4F)cc3)nc(OC3CCNCC3)c12,–,9.00,9.00
O=C(NCc1cocn1)c1cc(-c2ccc(NS(=O)(=O)c3cccc(Cl)c3Cl)cc2)nc2[nH]ncc12,–,6.49,> 9.00
CC(C)N1CC[C@H](NC(=O)c2cc(-c3ccc(NS(=O)(=O)c4cccc(Cl)c4Cl)cc3)nc3[nH]ncc23)C1,–,7.42,8.40
Nc1n[nH]c2nc(-c3ccc(NS(=O)(=O)c4cc(Cl)ccc4F)cc3)ccc12,91.7,–,–
O=C(NCc1ncn[nH]1)c1cc(-c2ccc(NS(=O)(=O)c3cccc(Cl)c3Cl)cc2)nc2[nH]ncc12,–,6.97,9.00
